Laboratory results reported in patent US12447156B2, “Treating progressive familial intrahepatic cholestasis (PFIC) with IBAT inhibitors” (ALBIREO AB, priority 2020, dated 2025).
Marks after values point to notes of the source that are not given here.

Tested on: patients with PFIC3 or PFIC6
Assay: PEDFIC 2: efficacy and safety in patients with PFIC3 or PFIC6
Type: in vivo, human
Conditions: for Common TEAEs by preferred term: ALT increased / Common TEAEs by preferred term: INR increased / Common TEAEs by preferred term: Total bilirubin increased / Common TEAEs by preferred term: Vitamin D deficiency / Mild TEAEs / Moderate TEAEs / Serious TEAEs / Severe TEAEs / TEAEs / TEAEs leading to discontinuation: 120 μg/kg once daily
Excerpt: In PEDFIC 2, eligible patients are enrolled into one of 2 cohorts, based on the following criteria: Cohort 1 includes pediatric patients with PFIC1 or PFIC2 from PEDFIC 1 and cohort 2 includes patients of any age with any PFIC type; these are newly enrolled patients. In both cohorts, eligible patients are those with genetically confirmed PFIC, elevated serum bile acids (≥100 μmol/L), and significant pruritus (i.e., itching or scratching score of ≥2 per patient/caregiver report using the PRUCISION instrument). PEDFIC 2 includes a 72-week treatment period in which all patients receive oral, once-daily odevixibat 120 μg/kg.
Change from baseline in serum bile acids, pruritus, hepatic biochemical parameters, growth, and sleep; serum bile acid response (i.e., serum bile acids reduced ≥70% or levels ≤70 μmol/L); proportion of positive pruritus assessments (PPAs) at the patient level (i.e., pruritus score ≤1 or a ≥1-point drop from baseline); and treatment-emergent adverse events (TEAEs). Patient pruritus and sleep were evaluated twice daily by caregivers using the validated PRUCISION scale; pruritus responses range from 0 to 4, with higher scores indicating worse symptom.

[1] = 6 patients with PFIC3 or PFIC6, 120 μg/kg
[2] = patient with PFIC6, N=1, oral once-daily 120 μg/kg
[3] = patients with PFIC3, N=4, oral once-daily 120 μg/kg

In the case of CCCCC1(CCCC)CN(c2ccccc2)c2cc(SC)c(OCC(=O)N[C@@H](C(=O)N[C@@H](CC)C(=O)O)c3ccc(O)cc3)cc2S(=O)(=O)N1 [Odevixibat, 1,1-dioxo-3,3-dibutyl-5-phenyl-7-methylthio-8-(N-{(R)-α-[N-((S)-1-carboxypropyl)carbamoyl]-4-hydroxybenzyl}carbamoylmethoxy)-2,3,4,5-tetrahydro-1,2,5-benzothiadiazepine], the “patients who met criteria for serum bile acid response at the last assessment” value (2 with PFIC3 and 1 with PFIC6, of 6 patients) is reported as “Three”, the “reductions in pruritus score from baseline to last assessment” value [1] is reported as “all but 1 patient (PFIC3) had reductions in pruritus score” and the “reductions in serum bile acids from baseline to last assessment” value [1] is reported as “all patients with PFIC3 or PFIC6 had reductions in serum bile acids”. For the same compound, the “Common TEAEs by preferred term: ALT increased” value (shortened to “Common TEAEs … ALT increased”) (Patient 1 (PFIC3)) was 0, the “Common TEAEs by preferred term: INR increased” value (from here on “Common TEAEs … INR increased”) (Patient 1 (PFIC3)) was 0 and the “Common TEAEs by preferred term: Total bilirubin increased” value (Patient 1 (PFIC3)) was 0. For the same compound, the “Common TEAEs by preferred term: Vitamin D deficiency” value (“Common TEAEs … Vitamin D deficiency” for short) (Patient 1 (PFIC3)) was 0, the “Mild TEAEs” value (Patient 1 (PFIC3)) was 0 and the “Moderate TEAEs” value (Patient 1 (PFIC3)) was 0. The “Serious TEAEs” value (Patient 1 (PFIC3)) was 0, the “Severe TEAEs” value (Patient 1 (PFIC3)) was 0 and the TEAEs (Patient 1 (PFIC3)) was 0. The “TEAEs leading to discontinuation” value (Patient 1 (PFIC3)) was 0, the “Common TEAEs … ALT increased” value (Patient 2 (PFIC3)) was 0 and the “Common TEAEs … INR increased” value (Patient 2 (PFIC3)) was 1. The “Common TEAEs by preferred term: Total bilirubin increased” value (Patient 2 (PFIC3)) was 1, the “Common TEAEs … Vitamin D deficiency” value (Patient 2 (PFIC3)) was 0 and the “Mild TEAEs” value (Patient 2 (PFIC3)) was 1. The “Moderate TEAEs” value (Patient 2 (PFIC3)) was 2, the “Serious TEAEs” value (Patient 2 (PFIC3)) was 0 and the “Severe TEAEs” value (Patient 2 (PFIC3)) was 0. The TEAEs (Patient 2 (PFIC3)) was 3, the “TEAEs leading to discontinuation” value (Patient 2 (PFIC3)) was 0 and the “Common TEAEs … ALT increased” value (Patient 3 (PFIC3)) was 1. The “Common TEAEs … INR increased” value (Patient 3 (PFIC3)) was 1, the “Common TEAEs by preferred term: Total bilirubin increased” value (Patient 3 (PFIC3)) was 2 and the “Common TEAEs … Vitamin D deficiency” value (Patient 3 (PFIC3)) was 0. For the same compound, the “Mild TEAEs” value (Patient 3 (PFIC3)) was 0, the “Moderate TEAEs” value (Patient 3 (PFIC3)) was 4 and the “Serious TEAEs” value (Patient 3 (PFIC3)) was 0. The “Severe TEAEs” value (Patient 3 (PFIC3)) was 1, the TEAEs (Patient 3 (PFIC3)) was 5 and the “TEAEs leading to discontinuation” value (Patient 3 (PFIC3)) was 0. The “Common TEAEs … ALT increased” value (Patient 4 (PFIC3)) was 1, the “Common TEAEs … INR increased” value (Patient 4 (PFIC3)) was 0 and the “Common TEAEs by preferred term: Total bilirubin increased” value (Patient 4 (PFIC3)) was 0. For the same compound, the “Common TEAEs … Vitamin D deficiency” value (Patient 4 (PFIC3)) was 1, the “Mild TEAEs” value (Patient 4 (PFIC3)) was 2 and the “Moderate TEAEs” value (Patient 4 (PFIC3)) was 0. For the same compound, the “Serious TEAEs” value (Patient 4 (PFIC3)) was 0, the “Severe TEAEs” value (Patient 4 (PFIC3)) was 3 and the TEAEs (Patient 4 (PFIC3)) was 5. The “TEAEs leading to discontinuation” value (Patient 4 (PFIC3)) was 0, the “Common TEAEs … ALT increased” value (Patient 5 (PFIC3)) was 0 and the “Common TEAEs … INR increased” value (Patient 5 (PFIC3)) was 0. For the same compound, the “Common TEAEs by preferred term: Total bilirubin increased” value (Patient 5 (PFIC3)) was 0, the “Common TEAEs … Vitamin D deficiency” value (Patient 5 (PFIC3)) was 2 and the “Mild TEAEs” value (Patient 5 (PFIC3)) was 3. For the same compound, the “Moderate TEAEs” value (Patient 5 (PFIC3)) was 0, the “Serious TEAEs” value (Patient 5 (PFIC3)) was 0 and the “Severe TEAEs” value (Patient 5 (PFIC3)) was 0. For the same compound, the TEAEs (Patient 5 (PFIC3)) was 3, the “TEAEs leading to discontinuation” value (Patient 5 (PFIC3)) was 0 and the “Common TEAEs … ALT increased” value (Patient 6 (PFIC6)) was 0. For the same compound, the “Common TEAEs … INR increased” value (Patient 6 (PFIC6)) was 0, the “Common TEAEs by preferred term: Total bilirubin increased” value (Patient 6 (PFIC6)) was 0 and the “Common TEAEs … Vitamin D deficiency” value (Patient 6 (PFIC6)) was 0. The “Mild TEAEs” value (Patient 6 (PFIC6)) was 1, the “Moderate TEAEs” value (Patient 6 (PFIC6)) was 0 and the “Serious TEAEs” value (Patient 6 (PFIC6)) was 0. For the same compound, the “Severe TEAEs” value (Patient 6 (PFIC6)) was 0, the TEAEs (Patient 6 (PFIC6)) was 1 and the “TEAEs leading to discontinuation” value (Patient 6 (PFIC6)) was 0. The “% of days needing help falling asleep, change from baseline to weeks 34-36” value [2] was −21^a %, the “% of days needing soothing, change from baseline to weeks 34-36” value [2] was −36^a % and the “% of days sleeping with caregiver, change from baseline to weeks 34-36” value [2] was 0^a %. The “% of days with bleeding associated with scratching, change from baseline to weeks 34-36” value [2] was 0^a %, the “Height Z score, change from baseline to week 36” value [2] was 0.1 and the “Pruritus score, change from baseline to weeks 34-36” value [2] was −1.8^a. The “Serum ALT, change from baseline to week 36” value [2] was 89 U/L, the “Serum bile acids, change from baseline to week 36” value [2] was -78 µmol/L and the “Total bilirubin, change from baseline to week 36” value [2] was -83 µmol/L. The “Weight Z score, change from baseline to week 36” value [2] was 0.5, the “% of days needing help falling asleep, mean (SE) change from baseline to weeks 34-36” value [3] was −29 (24)^a % and the “% of days needing soothing, mean (SE) change from baseline to weeks 34-36” value [3] was −28 (21)^a %. The “% of days sleeping with caregiver, mean (SE) change from baseline to weeks 34-36” value [3] was −27 (22)^a %, the “% of days with bleeding associated with scratching, mean (SE) change from baseline to weeks 34-36” value [3] was 6 (6)^a % and the “Height Z score, mean (SE) change from baseline to week 36” value [3] was 0.2 (0.2). The “Pruritus score, mean (SE) change from baseline to weeks 34-36” value [3] was −1.6 (0.4)^a, the “Serum ALT, mean (SE) change from baseline to week 36” value [3] was 67 (21) U/L and the “Serum bile acids, mean (SE) change from baseline to week 36” value [3] was −91 (37) μmol/L. For the same compound, the “Total bilirubin, mean (SE) change from baseline to week 36” value [3] was 18 (13) μmol/L, the “Weight Z score, mean (SE) change from baseline to week 36” value [3] was 0.1 (0.4) and the “patients who experienced any TEAE” value (patients with PFIC3 or PFIC6) was 5 of 6. For the same compound, the “serious TEAEs, TEAEs leading to discontinuation, or deaths” value (patients with PFIC3 or PFIC6) was “no serious TEAEs, TEAEs leading to discontinuation, or deaths”, the tolerability (patients with PFIC3 or PFIC6, up to the data cutoff in PEDFIC 2) was “generally well tolerated” and the “positive pruritus assessments (PPAs)” value (weeks 0-22, 1 additional patient with PFIC3) was 99%. The “positive pruritus assessments (PPAs)” value (weeks 0-36, 5 patients with available data (4 with PFIC3, 1 with PFIC6)) was at least 85%.
